Patent US20080220977A1, “Computational strategy for discovering druggable gene networks from genome-wide RNA expression profiles” (GNI Ltd., priority 2005, published 2008)

Tested on: human endothelial cells
Assay: Fenofibrate time-course microarray in human endothelial cells, GO Term Finder clusters of selected genes
Details: 25 μM fenofibrate, 18 hours microarray

CC(C)OC(=O)C(C)(C)Oc1ccc(C(=O)c2ccc(Cl)cc2)cc1 [fenofibrate]
# genes in GO annotation: cellular lipid metabolism (GO:0044255) (overexpressed genes): 21 | # genes in GO annotation: cholesterol biosynthesis (GO:0006695) (overexpressed genes): 5 | # genes in GO annotation: cholesterol metabolism (GO:0008203) (overexpressed genes): 7 | # genes in GO annotation: lipid metabolism (GO:0006629) (overexpressed genes): 25 | # genes in GO annotation: steroid biosynthesis (GO:0006694) (overexpressed genes): 7 | # genes in GO annotation: steroid metabolism (GO:0008202) (overexpressed genes): 10 | # genes in GO annotation: sterol biosynthesis (GO:0016126) (overexpressed genes): 6 | # genes in GO annotation: sterol metabolism (GO:0016125) (overexpressed genes): 8 | # genes in GO annotation: M phase (GO:0000279) (suppressed genes): 17 | # genes in GO annotation: M phase of mitotic cell cycle (GO:0000087) (suppressed genes): 15 | # genes in GO annotation: RNA splicing, via transesterification reactions (GO:0000375) (suppressed genes): 9 | # genes in GO annotation: RNA splicing, via transesterification reactions with bulged adenosine as nucleophile (GO:0000377) (suppressed genes): 9 | # genes in GO annotation: cell cycle (GO:0007049) (suppressed genes): 35 | # genes in GO annotation: mRNA metabolism (GO:0016071) (suppressed genes): 13 | # genes in GO annotation: mitosis (GO:0007067) (suppressed genes): 15 | # genes in GO annotation: mitotic cell cycle (GO:0000278) (suppressed genes): 19 | # genes in GO annotation: nuclear mRNA splicing, via spliceosome (GO:0000398) (suppressed genes): 9 | # genes in GO annotation: regulation of cell cycle (GO:0000074) (suppressed genes): 22
